Assay [1] can be described thus: Displacement of [3H]DPCPX from adenosine A1 receptor in Syrian hamster DDT1 MF2 cells. It counts as cell-based, Mesocricetus auratus. Background: In a radioligand displacement assay an active substance lowers the binding of a labelled ligand.
In assay [2] the target is Beta-2 adrenergic receptor (Mesocricetus auratus) (UniProt P04274). As to the kind of experiment: Displacement of [125I](-)-iodopindolol from adrenergic beta2 receptor in Syrian hamster DDT1 MF2 cells at 10 uM. It counts as cell-based.
Sequence of Beta-2 adrenergic receptor (Mesocricetus auratus) (P04274 whole entry, looked up): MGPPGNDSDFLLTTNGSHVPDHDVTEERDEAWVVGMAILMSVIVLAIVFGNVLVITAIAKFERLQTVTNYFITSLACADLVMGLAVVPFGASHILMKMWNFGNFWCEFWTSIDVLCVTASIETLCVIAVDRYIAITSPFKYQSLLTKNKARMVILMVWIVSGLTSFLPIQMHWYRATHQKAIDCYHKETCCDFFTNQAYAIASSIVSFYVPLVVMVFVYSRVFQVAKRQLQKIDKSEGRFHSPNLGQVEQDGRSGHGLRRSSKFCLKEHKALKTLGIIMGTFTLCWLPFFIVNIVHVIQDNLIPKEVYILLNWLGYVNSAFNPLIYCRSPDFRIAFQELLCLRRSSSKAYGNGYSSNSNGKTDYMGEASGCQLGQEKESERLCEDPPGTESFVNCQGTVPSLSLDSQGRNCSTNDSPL
Assay [3] shares this target. The assay can be described thus: Agonist activity at adrenergic beta2 receptor in Syrian hamster DDT1 MF2 cells assessed as stimulation of cAMP accumulation up to 100 uM by radioimmunoassay in presence of 1 uM DPCPX. It is filed as functional, cell-based. (cAMP levels reflect the balance of adenylyl cyclase and phosphodiesterase activity.)
Assay [4] has as its target T1, Beta-2 adrenergic receptor (Mesocricetus auratus, UniProt P04274). The assay can be described thus: Displacement of [125I](-)-iodopindolol from adrenergic beta2 receptor in Syrian hamster DDT1 MF2 cells. It counts as cell-based.
Assay [5] has as its target T1, Beta-2 adrenergic receptor. The assay can be described thus: Agonist activity at adrenergic beta2 receptor in Syrian hamster DDT1 MF2 cells assessed as stimulation of cAMP accumulation by radioimmunoassay in presence of 1 uM DPCPX. It is filed as functional, cell-based.
Assay [6] deals with Beta-2 adrenergic receptor (Mesocricetus auratus) (UniProt P04274). The assay can be described thus: Agonist activity at adrenergic beta2 receptor in Syrian hamster DDT1 MF2 cells assessed as stimulation of cAMP accumulation by radioimmunoassay in presence of 1 uM DPCPX relative to (-)-isoproterenol. It counts as functional, cell-based.

Activity calls are given as the source filed them. The calls are words filed in the database; no cut-off is given here.

T1 sequence (P04274 whole entry): as the sequence (P04274 whole entry, looked up) above

As to `O=CNc1cc(C(O)CNCCNc2ncnc3c2ncn3[C@@H]2O[C@H](CO)[C@@H](O)[C@H]2O)ccc1O` (stereo not given in full), the Ki (in general, a dissociation constant, usually derived from enzyme kinetics or from competition with a known ligand) in assay [1] was 1980 nM; in assay [4], above 10000 nM. In addition, in assay [2], the inhibition (in general, the change of the read-out against control, counted positive when it falls) turned out to be 20%. Moreover, the result in assay [3] was inactive.
In the case of `Nc1cc(C(O)CNCCCCNc2ncnc3c2ncn3[C@@H]2O[C@H](CO)[C@@H](O)[C@H]2O)ccc1O` (stereo not given in full), the EC50 – broadly, the midpoint of the concentration-response curve – in assay [5] is 1090 nM.
In the case of `Nc1cc(C(O)CNCCNc2ncnc3c2ncn3[C@@H]2O[C@H](CO)[C@@H](O)[C@H]2O)ccc1O` (stereo not given in full), the Ki in assay [1] is 2750 nM; in assay [4], above 10000 nM. The compound also registered an inhibition in assay [2] of 20%. Moreover, in assay [3], the outcome was inactive. Further, the Activity in assay [6] was determined as 50%.

Values taken from ChEMBL document CHEMBL1140105, “Synthesis of bivalent beta2-adrenergic and adenosine A1 receptor ligands” (J Med Chem, 2008).
